Experimental data from article PMC8046226, “Koala cathelicidin PhciCath5 has antimicrobial activity, including against Chlamydia pecorum” (PLoS ONE, 2021).
≈ marks a conversion by molar mass, not a printed value. Where two headings read alike, the source gives them in different places. Residues, ends and D or L forms follow the SMILES beside them. No end group written: not given here.

What was measured:
MRSA (animal isolate) = format: cell-based, Staphylococcus aureus; conditions: broth microdilution (CLSI), MH II B with magnesium and calcium cations, 35°C, 20–48 hours
Procedure: (§1) Antimicrobial activity was determined against a range of bacteria and fungi from humans and animals using a broth microdilution susceptibility assay according to clinical laboratory standards institute (CLSI) guidelines in 96 well polypropylene plates as described previously. Briefly, cathelicidins were dissolved in DMSO and serially diluted, in cation-adjusted Mueller Hinton Broth (MH II B) with or without 10% lysed horse blood for bacteria, and yeast nitrogen base (YNB) for fungi. Cathelicidin concentrations ranged between 64μg/mL and 0.125μg/mL in a final volume of 100μL. For all bacteria and fungi tested, ampicillin, tetracycline and fluconazole were included as positive controls, in addition to a media-only control and growth control (no inhibitor). Bacteria and fungi were sub-cultured 20–24 hours prior to the test, suspended in saline and their concentration adjusted to a 0.5 McFarland standard. Microorganisms were then diluted to a concentration of 0.5–1.0x10^6 cells/mL, with colony counts performed to confirm microorganism density, and 100μL was dispensed into the wells of the cathelicidin dilution plate. […] Antimicrobial activity was expressed as minimum inhibitory concentration (MIC), which was defined as the lowest concentration of cathelicidin preventing visible bacterial growth, relative to the no-drug control. […]

C. krusei ATCC 6258 = experiment: Broth microdilution susceptibility assay (MIC); format: cell-based, Candida krusei; conditions: broth microdilution (CLSI), yeast nitrogen base (YNB) for fungi, 35°C, 20–48 hours
Procedure: as §1

[1] = tested on: C. parapsilosis ATCC 22019; experiment: Broth microdilution susceptibility assay (MIC); format: cell-based, Candida parapsilosis; conditions: broth microdilution (CLSI), yeast nitrogen base (YNB) for fungi, 35°C, 20–48 hours
Procedure: as §1

[2] = tested on: L. monocytogenes (animal isolate); experiment: Broth microdilution susceptibility assay (MIC); format: cell-based; conditions: broth microdilution (CLSI), MH II B with magnesium and calcium cations, 35°C, 20–48 hours
Procedure: (§2) Antimicrobial activity was determined against a range of bacteria and fungi from humans and animals using a broth microdilution susceptibility assay according to clinical laboratory standards institute (CLSI) guidelines in 96 well polypropylene plates as described previously. Briefly, cathelicidins were dissolved in DMSO and serially diluted, in cation-adjusted Mueller Hinton Broth (MH II B) with or without 10% lysed horse blood for bacteria, and yeast nitrogen base (YNB) for fungi. Cathelicidin concentrations ranged between 64μg/mL and 0.125μg/mL in a final volume of 100μL. For all bacteria and fungi tested, ampicillin, tetracycline and fluconazole were included as positive controls, in addition to a media-only control and growth control (no inhibitor). Bacteria and fungi were sub-cultured 20–24 hours prior to the test, suspended in saline and their concentration adjusted to a 0.5 McFarland standard. Microorganisms were then diluted to a concentration of 0.5–1.0x10^6 cells/mL, with colony counts performed to confirm microorganism density, and 100μL was dispensed into the wells of the cathelicidin dilution plate. All plates were incubated at 35°C for 20–48 hours depending on the strain. Antimicrobial activity was expressed as minimum inhibitory concentration (MIC), which was defined as the lowest concentration of cathelicidin preventing visible bacterial growth, relative to the no-drug control. The same microdilution susceptibility assay was performed using Mueller Hinton Broth without the addition of the divalent cations calcium and magnesium (MHB), to test the effect of the cations on PhciCath5 activity against the ATCC strains E. coli 25922 and S. aureus 29213.

C. albicans = experiment: Broth microdilution susceptibility assay (MIC); format: cell-based; conditions: broth microdilution (CLSI), yeast nitrogen base (YNB) for fungi, 35°C, 20–48 hours
Procedure: as §2

E. coli (animal isolate) = experiment: Broth microdilution susceptibility assay (MIC); format: cell-based; conditions: broth microdilution (CLSI), MH II B with magnesium and calcium cations, 35°C, 20–48 hours
Procedure: as §2

[3] = tested on: P. multocida (animal isolate); experiment: Broth microdilution susceptibility assay (MIC); format: cell-based; conditions: broth microdilution (CLSI), MH II B with magnesium and calcium cations, 35°C, 20–48 hours
Procedure: as §2

[4] = tested on: P. aeruginosa (animal isolate); experiment: Broth microdilution susceptibility assay (MIC); format: cell-based; conditions: broth microdilution (CLSI), MH II B with magnesium and calcium cations, 35°C, 20–48 hours
Procedure: as §2

[5] = tested on: K. pneumoniae (animal isolate); experiment: Broth microdilution susceptibility assay (MIC); format: cell-based; conditions: broth microdilution (CLSI), MH II B with magnesium and calcium cations, 35°C, 20–48 hours
Procedure: as §2

S. equi (animal isolate) = experiment: Broth microdilution susceptibility assay (MIC); format: cell-based; conditions: broth microdilution (CLSI), MH II B with magnesium and calcium cations, 35°C, 20–48 hours
Procedure: as §2

[6] = tested on: S. aureus (animal isolate); experiment: Broth microdilution susceptibility assay (MIC); format: cell-based; conditions: broth microdilution (CLSI), MH II B with magnesium and calcium cations, 35°C, 20–48 hours
Procedure: as §2

C. glabrata = experiment: Broth microdilution susceptibility assay (MIC); format: cell-based; conditions: broth microdilution (CLSI), yeast nitrogen base (YNB) for fungi, 35°C, 20–48 hours
Procedure: as §2

[7] = tested on: S. agalactiae (animal isolate); experiment: Broth microdilution susceptibility assay (MIC); format: cell-based; conditions: broth microdilution (CLSI), MH II B with magnesium and calcium cations, 35°C, 20–48 hours
Procedure: as §2

S. oralis = format: cell-based
Procedure: as §2

E. coli ATCC25922 = format: cell-based
Procedure: as §2

S. dysgalactiae = format: cell-based
Procedure: as §2

S. pyogenes ATCC19615 = format: cell-based
Procedure: as §2

S. pneumoniae ATCC49619 = format: cell-based
Procedure: as §2

S. agalactiae ATCC12386 = format: cell-based
Procedure: as §2

P. aeruginosa ATCC27853 = format: cell-based
Procedure: as §2

S. salivarius = format: cell-based
Procedure: as §2

S. lutetiensis = format: cell-based
Procedure: as §2

S. aureus ATCC29213 = format: cell-based
Procedure: as §2

S. mutans = format: cell-based
Procedure: as §2

C. pecorum MarsBar = experiment: Chlamydia pecorum antimicrobial susceptibility (elementary body inactivation, IFU/mL); format: cell-based; conditions: 125, 250 and 500μg/mL; less than half an order of magnitude difference in chlamydial inclusions compared with the control
Procedure: (§3) C. pecorum IPTaLE and MarsBar were cultured in mouse McCoy B cells, on DMEM supplemented with 10% foetal calf serum (FCS), 0.1mg/mL streptomycin and 0.05mg/mL gentamicin at 37°C in a 5% CO2 atmosphere. Cell lines were routinely tested for mycoplasma contamination every 2 months. Prior to performing antimicrobial susceptibility assays, 96-well plates were seeded with 30,000 host cells per well 24 hours prior to chlamydial infection as described previously. For the antimicrobial assays, koala cathelicidin mature peptides, PhciCath1, 2, 3, 5 and 6, were solubilized in water for cell culture with 0.01% acetic acid, and two-fold dilutions were made in sucrose-phosphate-glutamic acid (SPG) media from 1mg to 250μg/mL, in triplicate. Cathelicidin containing wells were diluted one in two with C. pecorum IPTaLE and MarsBar EBs and incubated for 2 hours at 37°C, giving a final cathelicidin concentration of 500, 250 and 125μg/mL. A negative SPG only control was included. To exclude the possibility of cathelicidin toxicity to McCoy cells, cathelicidin dilutions were removed by centrifugation and C. pecorum EBs re-suspended in DMEM supplemented with 10% FCS, 0.1mg/mL streptomycin and 0.05mg/mL gentamycin. The suspension was used to infect a McCoy B ATCC CRL-1696 cell monolayer at a Multiplicity of Infection (MOI) of 0.6 as described previously. […]

C. pecorum IPTaLE = experiment: as above; format: cell-based; conditions: 125, 250 and 500μg/mL; less than half an order of magnitude difference in chlamydial inclusions compared with the control
Procedure: as §3

C. trachomatis = conditions: cited from earlier work
From the text: Koala cathelicidin PhciCath5 inactivated C. pecorum MarsBar and IPTaLE elementary bodies (EB) and was the only peptide tested that caused biologically and statistically significant reductions in chlamydial inclusions. […] Timing of cathelicidin release from immune and epithelial cells within the host may not enable direct interaction with EB. […] Indeed, proteases secreted by this C. trachomatis neutralise LL-37 anti-chlamydial activity, thereby evading AMP attack and ensuring extracellular EB survival. ...

CC[C@H](C)[C@H](NC(=O)CNC(=O)CNC(=O)[C@H](CCCNC(=N)N)NC(=O)[C@@H](N)CCCCN)C(=O)N[C@@H](Cc1c[nH]c2ccccc12)C(=O)N[C@@H](CCCCN)C(=O)N[C@@H](CC(C)C)C(=O)N[C@H](C(=O)N[C@@H](CCCNC(=N)N)C(=O)N1CCC[C@H]1C(=O)N[C@@H](CC(C)C)C(=O)NCC(=O)N[C@@H](CCCNC(=N)N)C(=O)NCC(=O)N[C@@H](C)C(=O)NCC(=O)N[C@@H](CCCNC(=N)N)C(=O)N[C@H](C(=O)N[C@@H](CC(C)C)C(=O)N[C@@H](CCCNC(=N)N)C(=O)N[C@@H](Cc1c[nH]cn1)C(=O)N[C@@H](Cc1ccccc1)C(=O)N[C@@H](Cc1c[nH]cn1)C(=O)N[C@H](C(=O)N[C@@H](CC(=O)O)C(=O)N[C@@H](Cc1ccccc1)C(=O)N[C@@H](CS)C(=O)NCC(=O)N[C@@H](CC(N)=O)C(=O)N[C@@H](CS)C(=O)O)[C@@H](C)CC)[C@@H](C)CC)[C@@H](C)CC [PhciCath5] (H-KRGGIWKLIRPLGRGAGRILRHFHIDFCGNC-OH)
MIC (MRSA (animal isolate)): 16 µg/mL (≈ 4.51 µM) | MIC (C. krusei ATCC 6258): 64 µg/mL (≈ 18 µM) | MIC [1]: 32 µg/mL (≈ 9.02 µM) | MIC [2]: 64 µg/mL (≈ 18 µM) | MIC (C. albicans): >64 µg/mL | MIC (E. coli (animal isolate)): 16 µg/mL (≈ 4.51 µM) | MIC [3]: >64 µg/mL | MIC [4]: >64 µg/mL | MIC [5]: >64 µg/mL | MIC (S. equi (animal isolate)): >64 µg/mL | MIC [6]: 8 µg/mL (≈ 2.25 µM) | MIC (C. glabrata): >64 µg/mL | MIC [7]: 64 µg/mL (≈ 18 µM) | MIC (S. oralis): >64 µg/mL | MIC (E. coli ATCC25922): 64 µg/mL (≈ 18 µM) | MIC (in brackets) (E. coli ATCC25922): 11 µg/mL (≈ 3.1 µM) | MIC (S. dysgalactiae): >64 µg/mL | MIC (S. pyogenes ATCC19615): 64 µg/mL (≈ 18 µM) | MIC (S. pneumoniae ATCC49619): >64 µg/mL | MIC (S. agalactiae ATCC12386): 64 µg/mL (≈ 18 µM) | MIC (P. aeruginosa ATCC27853): >64 µg/mL | MIC (S. salivarius): 64 µg/mL (≈ 18 µM) | MIC (S. lutetiensis): >64 µg/mL | MIC (S. aureus ATCC29213): 16 µg/mL (≈ 4.51 µM) | MIC (in brackets) (S. aureus ATCC29213): 11 µg/mL (≈ 3.1 µM) | MIC (S. mutans): >64 µg/mL

CC[C@H](C)[C@H](NC(=O)[C@H](CCCNC(=N)N)NC(=O)[C@H](CCCCN)NC(=O)[C@H](Cc1ccccc1)NC(=O)[C@H](CCCNC(=N)N)NC(=O)[C@H](CC(C)C)NC(=O)[C@@H]1CCCN1C(=O)[C@H](CCC(=O)O)NC(=O)[C@@H]1CCCN1C(=O)[C@@H]1CCCN1)C(=O)N[C@@H](CCCNC(=N)N)C(=O)N[C@@H](CS)C(=O)N[C@@H](CC(C)C)C(=O)N[C@@H](CC(N)=O)C(=O)NCC(=O)N[C@@H](CCCNC(=N)N)C(=O)N[C@@H](CCCCN)C(=O)N[C@@H](CS)C(=O)N[C@@H](CC(N)=O)C(=O)N[C@@H](Cc1ccc(O)cc1)C(=O)N[C@@H](Cc1c[nH]cn1)C(=O)N[C@@H](CC(N)=O)C(=O)N[C@@H](CC(C)C)C(=O)N[C@@H](CC(C)C)C(=O)N[C@@H](CC(C)C)C(=O)N[C@H](C(=O)N[C@H](C(=O)N[C@H](C(=O)N1CCC[C@H]1C(=O)N[C@@H](Cc1c[nH]cn1)C(=O)N[C@@H](Cc1c[nH]c2ccccc12)C(=O)N[C@@H](CCCNC(=N)N)C(=O)N[C@H](C(=O)N1CCC[C@H]1C(=O)N[C@@H](CCCCN)C(=O)NCC(=O)N[C@@H](CCCCN)C(=O)O)[C@@H](C)CC)C(C)C)[C@@H](C)CC)[C@@H](C)O [PhciCath3] (H-PPEPLRFKRIRCLNGRKCNYHNLLLTIVPHWRIPKGK-OH)
activity against C. pecorum MarsBar up to 500ug/mL (C. pecorum MarsBar): ineffective | activity against C. pecorum IPTaLE up to 500ug/mL (C. pecorum IPTaLE): ineffective

PG-1: pig protegrin PG-1, a eutherian cathelicidin (RGGRLCYCRRRFCVCVGR; ends and bridges not checked; cysteine pairing not given here; UniProt P32194 131-148, looked up)
concentration which reduced the infectivity of C. trachomatis (C. trachomatis; single round of infection): 1.25 µg/mL | reduction in infectivity (C. trachomatis; treatment of extracellular EBs): ~100% | reduction in infectivity (C. trachomatis; treatment of intracellular C. trachomatis): 67%
